Assay [1] in a line: In vitro concentration in […] which reduces the protein concentration by 50% in a microtubule assembly assay, relative to taxol (1) and expressed as ED50/ED50 taxol. The format is functional.
Assay [2] concerns B16. Put plainly: Compound was tested in vitro inhibition of proliferation against B16 melanoma after a 40h incubation relative to that of taxol (Taxol=1). The format is functional, Mus musculus.
Assay [3] deals with B16. The assay can be described thus: Compound was tested in vitro inhibition of proliferation against B16 melanoma after a 40h incubation. Format: functional, Mus musculus.
The nature of assay [4]: In vitro concentration in […] which reduces the protein concentration by 50% in a microtubule assembly assay expressed as ED50/ED50 taxol. The format is functional.

Three compounds from ChEMBL document CHEMBL1127938, “The first synthesis of a C-9 carbonyl modified baccatin III derivative and its conversion to novel taxol and taxotere analogues” (1994) can be followed below.

For `CC(=O)O[C@@]12CO[C@@H]1C[C@H](O)[C@@]1(C)c3oc(=O)oc3C3=C(C)[C@@H](OC(=O)[C@H](O)[C@@H](NC(=O)c4ccccc4)c4ccccc4)C[C@@](O)([C@@H](OC(=O)c4ccccc4)C12)C3(C)C` (stereo partly specified), the ED50 ratio worked out at 2.4 in assay [1] and 34.5 with B16 [2].

As for `CC(=O)O[C@H]1C(=O)[C@@]2(C)[C@H]([C@H](OC(=O)c3ccccc3)[C@]3(O)C[C@H](OC(=O)[C@H](O)[C@@H](NC(=O)c4ccccc4)c4ccccc4)C(C)=C1C3(C)C)[C@]1(OC(C)=O)CO[C@@H]1C[C@@H]2O` [PACLITAXEL], the ED50 ratio (in the assay on B16 [3]; in assay [4]) was 1 in each case.

As for `CC(=O)O[C@@]12CO[C@@H]1C[C@H](O)[C@@]1(C)c3oc(=O)oc3C3=C(C)[C@@H](OC(=O)[C@H](O)[C@@H](NC(=O)OC(C)(C)C)c4ccccc4)C[C@@](O)([C@@H](OC(=O)c4ccccc4)C12)C3(C)C` (stereo partly specified), the ED50 ratio came out at 0.5 in assay [1] and 16.4 with B16 [2].
